One data set concerns Pichia kudriavzevii. The data set is described as follows: Antifungal activity against Candida krusei ATCC 6258 after 18 to 24 hrs by Alamar blue assay. The class given is functional.
In another data set the test system is Pseudomonas aeruginosa. The experiment in a line: Anti-bacterial activity against Pseudomonas aeruginosa ATCC 27853 by CLSI method. The class given is functional.
The subject of data set [1] is Cryptococcus neoformans. The data set is described as follows: Fungicidal activity against Cryptococcus neoformans ATCC 90113 after 68 to 72 hrs by Alamar blue assay. Format: functional.
The next data set deals with Candida albicans. The experiment in a line: Antifungal activity against Candida albicans ATCC 90028 after 18 to 24 hrs by Alamar blue assay. The class given is functional.
The subject of a further data set is Aspergillus fumigatus. The experiment in a line: Antifungal activity against Aspergillus fumigatus ATCC 90906 after 68 to 72 hrs by Alamar blue assay. The class given is functional.
For the next data set, the system named is Vero. The experiment in a line: Cytotoxicity against African green monkey Vero cells up to 10 ug/ml after 48 hrs by neutral red dye based assay. The class given is cell-based. As to conditions: chlorocebus sabaeus; call rule not given here.
The test system of another data set is Nakaseomyces glabratus. The data set is described as follows: Antifungal activity against Candida glabrata ATCC 90030 after 18 to 24 hrs by Alamar blue assay. The class given is functional.
In data set [2] the test system is Mycobacterium intracellulare. The experiment in a line: Anti-bacterial activity against Mycobacterium intracellulare ATCC 23068 after 68 to 72 hrs by Alamar blue assay. The class given is functional, cell-based.
Data set [3] has as its system Cryptococcus neoformans. The experiment in a line: Antifungal activity against Cryptococcus neoformans ATCC 90113 after 68 to 72 hrs by Alamar blue assay. The class given is functional.
A further data set deals with Escherichia coli. The data set is described as follows: Anti-bacterial activity against Escherichia coli ATCC 35218 by CLSI method. Format: functional.

≈ marks a conversion by molar mass, not a printed value. Non-standard residues stand in square brackets, D forms with d. Residues, ends and D or L forms follow the SMILES beside them. His(τ-Bzl) = N[C@@H](Cc1cn(Cc2ccccc2)cn1)C(=O)O; Phe(4-Me) = Cc1ccc(C[C@H](N)C(=O)O)cc1; Cha = N[C@@H](CC1CCCCC1)C(=O)O; Phg = N[C@H](C(=O)O)c1ccccc1; Nle = CCCC[C@H](N)C(=O)O; Orn = NCCC[C@H](N)C(=O)O; Dab = NCC[C@H](N)C(=O)O

Regarding `CC[C@H](C)[C@H](NC(=O)[C@H](CC1CCCCC1)NC(=O)[C@@H](Cc1ccccc1)NC(=O)[C@@H](N)CCCN)C(=O)N[C@H](Cc1ccccc1)C(=O)N[C@@H](Cc1cn(Cc2ccccc2)cn1)C(N)=O` (H-[Orn][dF][Cha]I[dF][His(τ-Bzl)]-NH2), the IC50 result with Pichia kudriavzevii, in the data set on Pseudomonas aeruginosa, in the data set with Candida albicans, in the data set on Aspergillus fumigatus and in the data set on Nakaseomyces glabratus was “Not Active” in each case. In addition, in the data set with Cryptococcus neoformans [1], the minimum fungicidal concentration (MFC) is 1.25 µg/mL (≈ 1.36 µM). The Activity result in the data set on Vero is recorded as “Non-Toxic”.

On to `CC[C@H](C)[C@H](NC(=O)[C@H](CC1CCCCC1)NC(=O)[C@H](CC(C)C)NC(=O)[C@@H](N)CCCN)C(=O)N[C@H](Cc1ccccc1)C(=O)N[C@@H](Cc1cn(Cc2ccccc2)cn1)C(N)=O` (H-[Orn]L[Cha]I[dF][His(τ-Bzl)]-NH2), for which the IC50 entry (in the data set with Pichia kudriavzevii; with Pseudomonas aeruginosa; in data set [2]; in the data set with Candida albicans; in the data set on Aspergillus fumigatus; in the data set on Nakaseomyces glabratus) was “Not Active” each time. The compound also showed an MFC in the data set with Cryptococcus neoformans [1] of 2.5 µg/mL (≈ 2.82 µM). The Activity entry in the data set on Vero is recorded as “Non-Toxic”.

With `CC[C@H](C)[C@H](NC(=O)[C@H](CC1CCCCC1)NC(=O)[C@H]1CCCN1C(=O)[C@@H](N)CCCN)C(=O)N[C@H](Cc1ccccc1)C(=O)N[C@@H](Cc1cn(Cc2ccccc2)cn1)C(N)=O` (H-[Orn][dP][Cha]I[dF][His(τ-Bzl)]-NH2), in the data set with Cryptococcus neoformans [3], the MIC was 2.5 µg/mL (≈ 2.88 µM). Also, the IC50 entry (in the data set on Pichia kudriavzevii; in the data set on Pseudomonas aeruginosa; in data set [2]; in the data set on Candida albicans; with Aspergillus fumigatus; in the data set on Nakaseomyces glabratus) was “Not Active” in each case. Besides, in the data set on Cryptococcus neoformans [1], the MFC came to 2.5 µg/mL (≈ 2.88 µM). For the same compound, in the data set with Vero, the Activity result is “Non-Toxic”.

For the compound `O=C(O)c1cn(C2CC2)c2cc(N3CCNCC3)c(F)cc2c1=O` [CIPROFLOXACIN], in data set [2] (Mycobacterium intracellulare, ATCC 23068, read-out: IC50), the IC50 was 0.47 µg/mL (≈ 1.42 µM).

Consider `Cc1ccc(C[C@H](NC(=O)[C@@H](Cc2ccccc2)NC(=O)[C@@H](Cc2c[nH]c3ccccc23)NC(=O)[C@@H](N)CCN)C(=O)N[C@H](Cc2ccccc2)C(=O)N[C@@H](Cc2cn(Cc3ccccc3)cn2)C(N)=O)cc1` (H-[Dab][dW][dF][Phe(4-Me)][dF][His(τ-Bzl)]-NH2), for which the IC50 entry (in the data set on Pseudomonas aeruginosa; in [2]; in the data set on Candida albicans; in the data set on Aspergillus fumigatus; with Escherichia coli; with Nakaseomyces glabratus) was “Not Active” throughout. The Activity entry in the data set on Vero was “Non-Toxic”.

In the case of `CCCC[C@H](NC(=O)[C@@H](N)CCCN)C(=O)N[C@@H](CC1CCCCC1)C(=O)N[C@H](C(=O)N[C@H](Cc1ccccc1)C(=O)N[C@@H](Cc1cn(Cc2ccccc2)cn1)C(N)=O)[C@@H](C)CC` (H-[Orn][Nle][Cha]I[dF][His(τ-Bzl)]-NH2), the half-maximal inhibitory concentration (IC50) entry (with Pichia kudriavzevii; with Pseudomonas aeruginosa; in [2]; in the data set with Candida albicans; in the data set with Aspergillus fumigatus; in the data set with Nakaseomyces glabratus) was “Not Active” throughout. In addition, the MFC in the data set on Cryptococcus neoformans [1] turned out to be 2.5 µg/mL (≈ 2.82 µM). Also, the Activity result in the data set with Vero is reported as “Non-Toxic”.

For the compound `CC[C@H](C)[C@H](NC(=O)[C@H](CC1CCCCC1)NC(=O)[C@@H](NC(=O)[C@@H](N)CCCN)c1ccccc1)C(=O)N[C@H](Cc1ccccc1)C(=O)N[C@@H](Cc1cn(Cc2ccccc2)cn1)C(N)=O` (H-[Orn][Phg][Cha]I[dF][His(τ-Bzl)]-NH2), the IC50 result (in the data set with Pichia kudriavzevii; in the data set with Pseudomonas aeruginosa; in data set [2]; with Candida albicans; with Aspergillus fumigatus; in the data set on Nakaseomyces glabratus) was “Not Active” throughout. The Activity result in the data set with Vero was “Non-Toxic”.

With `CC[C@H](C)[C@H](NC(=O)[C@H](CC1CCCCC1)NC(=O)[C@@H]1CCCN1C(=O)[C@@H](N)CCCN)C(=O)N[C@H](Cc1ccccc1)C(=O)N[C@@H](Cc1cn(Cc2ccccc2)cn1)C(N)=O` (H-[Orn]P[Cha]I[dF][His(τ-Bzl)]-NH2), the 50% inhibitory concentration (IC50) entry (in the data set with Pichia kudriavzevii; in the data set with Pseudomonas aeruginosa; in [2]; with Candida albicans; in the data set on Aspergillus fumigatus; in the data set with Nakaseomyces glabratus) was “Not Active” throughout. In addition, in the data set on Cryptococcus neoformans [1], the MFC was found to be 2.5 µg/mL (≈ 2.88 µM). Moreover, the Activity result with Vero is listed as “Non-Toxic”.

Turning to `CC[C@H](C)[C@H](NC(=O)[C@H](CC1CCCCC1)NC(=O)[C@H](Cc1ccccc1)NC(=O)[C@@H](N)CCCN)C(=O)N[C@H](Cc1ccccc1)C(=O)N[C@@H](Cc1cn(Cc2ccccc2)cn1)C(N)=O` (H-[Orn]F[Cha]I[dF][His(τ-Bzl)]-NH2), the MIC in the data set with Cryptococcus neoformans [3] came out at 2.5 µg/mL (≈ 2.72 µM). Further, the IC50 result (with Pichia kudriavzevii; in the data set on Pseudomonas aeruginosa; in [2]; in the data set with Candida albicans; with Aspergillus fumigatus; in the data set with Nakaseomyces glabratus) was “Not Active” throughout. Moreover, the Activity entry in the data set with Vero is on record as “Non-Toxic”.

Turning to `CC[C@H](C)[C@H](NC(=O)[C@H](CC1CCCCC1)NC(=O)[C@@H](CC(C)C)NC(=O)[C@@H](N)CCCN)C(=O)N[C@H](Cc1ccccc1)C(=O)N[C@@H](Cc1cn(Cc2ccccc2)cn1)C(N)=O` (H-[Orn][dL][Cha]I[dF][His(τ-Bzl)]-NH2), the MIC in the data set with Cryptococcus neoformans [3] was 1.25 µg/mL (≈ 1.41 µM); in [2] (Mycobacterium intracellulare, ATCC 23068) it was 20 µg/mL (≈ 22.6 µM). The IC50 result in the data set on Pichia kudriavzevii, in the data set on Pseudomonas aeruginosa, in the data set on Candida albicans, with Aspergillus fumigatus and in the data set with Nakaseomyces glabratus was “Not Active” each time. The Activity entry with Vero was “Non-Toxic”.

As to `CC[C@@H](C)[C@@H](NC(=O)[C@H](CC1CCCCC1)NC(=O)[C@@H](Cc1c[nH]c2ccccc12)NC(=O)[C@@H](N)CCCN)C(=O)N[C@H](Cc1ccccc1)C(=O)N[C@@H](Cc1cn(Cc2ccccc2)cn1)C(N)=O` (H-[Orn][dW][Cha][dI][dF][His(τ-Bzl)]-NH2), the IC50 result in the data set on Pseudomonas aeruginosa, with Aspergillus fumigatus and in the data set on Nakaseomyces glabratus was “Not Active” throughout. The Activity entry in the data set with Vero is listed as “Non-Toxic”.

Take `CC(C)[C@H](NC(=O)[C@H](CC1CCCCC1)NC(=O)[C@@H](Cc1c[nH]c2ccccc12)NC(=O)[C@@H](N)CCCN)C(=O)N[C@H](Cc1ccccc1)C(=O)N[C@@H](Cc1cn(Cc2ccccc2)cn1)C(N)=O` (H-[Orn][dW][Cha]V[dF][His(τ-Bzl)]-NH2): the MIC against Cryptococcus neoformans [3] was 1.25 µg/mL (≈ 1.32 µM). The IC50 entry with Pichia kudriavzevii, in the data set with Pseudomonas aeruginosa, with Candida albicans, in the data set on Aspergillus fumigatus, in the data set with Escherichia coli and in the data set on Nakaseomyces glabratus was “Not Active” each time. In addition, in the data set with Cryptococcus neoformans [1], the MFC is 1.25 µg/mL (≈ 1.32 µM). Also, the Activity result in the data set on Vero is “Non-Toxic”.

The values are drawn from ChEMBL document CHEMBL4024712, “Synthesis, stability and mechanistic studies of potent anticryptococcal hexapeptides” (Eur J Med Chem, 2017).
